Structures can show the parent of a compound that is named as a salt.
Columns and labels:
[1] = biological target: PI3Kδ (p110δ/p85α) Recombinant Human Protein (Homo sapiens (Human), UniProt O00329); assay: PI3Kδ Scintillation Proximity Assay; assay type: biochemical
How it was run: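 Recombinant human p110δ/p85α (3.4 nM) with 20 μM PIP2 and 2 μM ATP plus [γ-33P]ATP, in 20 mM MOPS pH 6.7, 10 mM MgCl2, 5 mM DTT, 0.03% CHAPS, 2% DMSO; 120 min at room temperature. Product captured on WGA SPA beads, scintillation counted; IC50 from percent-of-control curves.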

[2] = biological target: PI3Kγ (p110γ) Recombinant Human Protein (Homo sapiens (Human), UniProt P48736); assay: PI3K-γ Scintillation Proximity Assay; assay type: biochemical; settings: read-out: PI3Kγ IC50
Chain of PI3Kγ (p110γ) Recombinant Human Protein (P48736 whole entry): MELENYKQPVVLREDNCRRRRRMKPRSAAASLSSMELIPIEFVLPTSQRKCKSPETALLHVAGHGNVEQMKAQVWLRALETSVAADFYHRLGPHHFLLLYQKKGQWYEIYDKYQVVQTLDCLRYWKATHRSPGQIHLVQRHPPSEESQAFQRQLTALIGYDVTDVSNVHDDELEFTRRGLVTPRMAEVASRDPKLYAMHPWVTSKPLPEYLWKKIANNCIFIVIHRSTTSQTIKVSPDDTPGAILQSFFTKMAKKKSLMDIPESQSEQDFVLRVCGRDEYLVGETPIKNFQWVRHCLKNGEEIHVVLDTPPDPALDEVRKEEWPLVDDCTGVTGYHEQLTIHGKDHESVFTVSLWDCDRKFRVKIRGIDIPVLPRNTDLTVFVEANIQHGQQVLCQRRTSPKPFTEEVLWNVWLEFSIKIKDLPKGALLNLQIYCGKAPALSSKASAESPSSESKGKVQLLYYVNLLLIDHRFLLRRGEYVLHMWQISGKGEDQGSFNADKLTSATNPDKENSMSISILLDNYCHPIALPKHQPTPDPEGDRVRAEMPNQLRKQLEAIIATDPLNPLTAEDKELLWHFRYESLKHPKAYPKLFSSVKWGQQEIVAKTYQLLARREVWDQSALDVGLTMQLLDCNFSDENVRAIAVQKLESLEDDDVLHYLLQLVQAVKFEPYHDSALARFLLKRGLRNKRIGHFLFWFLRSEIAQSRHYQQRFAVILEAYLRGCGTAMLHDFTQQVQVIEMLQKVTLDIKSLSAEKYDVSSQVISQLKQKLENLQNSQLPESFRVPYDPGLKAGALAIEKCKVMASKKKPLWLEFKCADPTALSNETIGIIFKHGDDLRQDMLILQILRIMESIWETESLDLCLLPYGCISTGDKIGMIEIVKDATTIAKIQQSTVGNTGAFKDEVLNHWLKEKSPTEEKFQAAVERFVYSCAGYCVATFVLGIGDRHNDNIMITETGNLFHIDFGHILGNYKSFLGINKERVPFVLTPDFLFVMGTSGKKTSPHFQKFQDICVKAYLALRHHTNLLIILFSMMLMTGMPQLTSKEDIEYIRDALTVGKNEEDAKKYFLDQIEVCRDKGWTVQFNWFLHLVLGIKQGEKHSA
How it was run: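 Recombinant human p110γ assayed at room temperature in 20 mM MOPS pH 6.7, 10 mM MgCl2, 5 mM DTT, 0.03% CHAPS, 2% DMSO, with 20 μM PIP2 and 2 μM ATP plus [γ-33P]ATP. Product captured on WGA SPA beads overnight and counted; IC50 fitted from % of solvent-control activity versus log inhibitor concentration.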

[3] = system: Phosphorylated Ribosomal Protein S6 (RPS6); assay: THP-1 RPS6 ELISA Assay; assay type: cell-based, Human; settings: THP-1 cells; read-out: PI3Kγ_THP1_RPS6_ELISA IC50
How it was run: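 Serum-starved THP-1 cells were preincubated with a concentration range of compound for 2 h at 37 °C, then stimulated with 10 nM MCP-1 for 15 min. Phospho-RPS6 in lysates was quantified by ELISA at 450 nm. IC50 came from percent inhibition versus log inhibitor concentration.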

Chain of PI3Kδ (p110δ/p85α) Recombinant Human Protein (O00329 whole entry): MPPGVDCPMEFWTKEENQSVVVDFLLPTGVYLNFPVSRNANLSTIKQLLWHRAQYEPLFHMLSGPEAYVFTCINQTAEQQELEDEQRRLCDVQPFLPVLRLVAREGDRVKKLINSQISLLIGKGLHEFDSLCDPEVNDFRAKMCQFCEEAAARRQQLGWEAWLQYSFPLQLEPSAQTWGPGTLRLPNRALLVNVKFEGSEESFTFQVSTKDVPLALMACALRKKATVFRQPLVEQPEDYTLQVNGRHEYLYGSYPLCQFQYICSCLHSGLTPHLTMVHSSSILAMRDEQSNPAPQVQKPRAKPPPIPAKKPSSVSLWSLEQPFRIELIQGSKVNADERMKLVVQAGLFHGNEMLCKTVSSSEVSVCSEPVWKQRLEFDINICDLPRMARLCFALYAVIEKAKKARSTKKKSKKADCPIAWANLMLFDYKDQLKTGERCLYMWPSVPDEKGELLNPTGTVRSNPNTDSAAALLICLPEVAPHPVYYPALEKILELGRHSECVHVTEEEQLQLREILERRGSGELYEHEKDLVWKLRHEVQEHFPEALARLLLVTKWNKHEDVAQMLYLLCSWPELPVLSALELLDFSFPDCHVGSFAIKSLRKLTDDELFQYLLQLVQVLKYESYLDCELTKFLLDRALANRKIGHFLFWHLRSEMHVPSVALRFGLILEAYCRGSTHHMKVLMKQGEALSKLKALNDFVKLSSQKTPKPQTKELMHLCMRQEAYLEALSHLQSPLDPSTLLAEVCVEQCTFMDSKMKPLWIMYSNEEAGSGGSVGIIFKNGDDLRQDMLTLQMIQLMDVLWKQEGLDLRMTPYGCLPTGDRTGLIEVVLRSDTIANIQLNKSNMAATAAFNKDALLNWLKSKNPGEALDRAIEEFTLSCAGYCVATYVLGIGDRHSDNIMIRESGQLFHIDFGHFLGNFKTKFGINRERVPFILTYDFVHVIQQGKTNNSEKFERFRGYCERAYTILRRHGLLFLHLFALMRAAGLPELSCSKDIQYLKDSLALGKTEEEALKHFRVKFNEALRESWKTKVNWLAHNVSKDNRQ
Chain of PI3Kδ (p110δ/p85α) Recombinant Human Protein (P27986 whole entry partner): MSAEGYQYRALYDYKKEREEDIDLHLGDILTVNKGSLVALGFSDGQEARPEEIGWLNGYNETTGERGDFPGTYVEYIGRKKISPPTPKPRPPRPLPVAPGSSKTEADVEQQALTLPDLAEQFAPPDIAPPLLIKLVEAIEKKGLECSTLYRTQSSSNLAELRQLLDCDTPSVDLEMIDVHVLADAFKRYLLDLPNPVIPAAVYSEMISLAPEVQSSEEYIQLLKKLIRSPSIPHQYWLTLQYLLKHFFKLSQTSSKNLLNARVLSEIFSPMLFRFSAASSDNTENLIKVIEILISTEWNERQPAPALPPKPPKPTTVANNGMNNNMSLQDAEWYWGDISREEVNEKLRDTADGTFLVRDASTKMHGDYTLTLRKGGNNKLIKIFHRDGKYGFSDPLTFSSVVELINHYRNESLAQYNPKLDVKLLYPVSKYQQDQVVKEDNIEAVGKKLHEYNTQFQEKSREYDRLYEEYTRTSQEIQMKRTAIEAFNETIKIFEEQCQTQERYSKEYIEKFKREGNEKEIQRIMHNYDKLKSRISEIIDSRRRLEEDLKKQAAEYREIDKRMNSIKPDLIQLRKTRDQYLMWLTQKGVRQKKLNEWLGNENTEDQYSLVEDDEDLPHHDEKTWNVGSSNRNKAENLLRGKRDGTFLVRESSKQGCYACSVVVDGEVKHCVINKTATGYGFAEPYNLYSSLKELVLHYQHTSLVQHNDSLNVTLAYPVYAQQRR

IC50 [1] [nM] | IC50 [2] [nM] | IC50 [3] [nM] | SMILES
100 to 500 | < 100 | < 100 | Cc1ccc(S(=O)(=O)NCC2(O)COC2)cc1-c1cnc2c(N)nc(C(F)(F)F)nn12 [Example 316, 3-(4-Amino-2-(trifluoromethyl)imidazo[1,2-f][1,2,4]triazin-7-yl)-N-((3-hydroxyoxetan-3-yl)methyl)-4-methylbenzenesulfonamide trifluoroacetate salt]
100 to 500 | < 100 | < 100 | Cc1ccc(S(=O)(=O)NCC(C)(C)O)cc1-c1cnc2c(N)nc(C(F)(F)F)nn12 [Example 317, 3-(4-Amino-2-(trifluoromethyl)imidazo[1,2-f][1,2,4]triazin-7-yl)-N-(2-hydroxy-2-methylpropyl)-4-methylbenzenesulfonamide trifluoroacetate salt]
100 to 500 | < 100 | < 100 | Cc1ccc(S(=O)(=O)NC23CC(CO)(C2)C3)cc1-c1cnc2c(N)nc(C(F)(F)F)nn12 [Example 319, 3-(4-Amino-2-(trifluoromethyl)imidazo[1,2-f][1,2,4]triazin-7-yl)-N-(3-(hydroxymethyl)bicyclo[1.1.1]pentan-1-yl)-4-methylbenzenesulfonamide]
100 to 500 | < 100 | < 100 | Cc1ccc(S(=O)(=O)N[C@H]2C[C@H](CO)C2)cc1-c1cnc2c(N)nc(C(F)(F)F)nn12 [Example 323, 3-(4-Amino-2-(trifluoromethyl)imidazo[1,2-f][1,2,4]triazin-7-yl)-N-((1r,3r)-3-(hydroxymethyl)cyclobutyl)-4-methylbenzenesulfonamide trifluoroacetate salt]
100 to 500 | < 100 | 100 to 500 | Cc1ccc(S(=O)(=O)N[C@H]2CC[C@](C)(O)CC2)cc1-c1cnc2c(N)nc(C(F)(F)F)nn12 [Example 327, 3-(4-Amino-2-(trifluoromethyl)imidazo[1,2-f][1,2,4]triazin-7-yl)-N-((1r,4r)-4-hydroxy-4-methylcyclohexyl)-4-methylbenzenesulfonamide trifluoroacetate salt]
100 to 500 | < 100 | < 100 | Cc1ccc(S(=O)(=O)NC23CCC(CO)(C2)C3)cc1-c1cnc2c(N)nc(C(F)(F)F)nn12 [Example 328, 3-(4-Amino-2-(trifluoromethyl)imidazo[1,2-f][1,2,4]triazin-7-yl)-N-(4-(hydroxymethyl)bicyclo[2.1.1]hexan-1-yl)-4-methylbenzenesulfonamide trifluoroacetate salt]
100 to 500 | < 100 | 100 to 500 | Cc1ccc(S(=O)(=O)NC2CN(CCO)C2)cc1-c1cnc2c(N)nc(C(F)(F)F)nn12 [Example 329, 3-(4-Amino-2-(trifluoromethyl)imidazo[1,2-f][1,2,4]triazin-7-yl)-N-(1-(2-hydroxyethyl)azetidin-3-yl)-4-methylbenzenesulfonamide trifluoroacetate salt]

The next lines start with the molecule.

SMILES | IC50 [1] [nM] | IC50 [2] [nM] | IC50 [3] [nM]
Cc1ccc(S(=O)(=O)NCC2(F)COC2)cc1-c1cnc2c(N)nc(C(F)(F)F)nn12 [Example 315, 3-(4-Amino-2-(trifluoromethyl)imidazo[1,2-f][1,2,4]triazin-7-yl)-N-((3-fluorooxetan-3-yl)methyl)-4-methylbenzenesulfonamide trifluoroacetate salt] | < 100 | < 100 | < 100
Cc1ccc(S(=O)(=O)NCC2(C)COC2)cc1-c1cnc2c(N)nc(C(F)(F)F)nn12 [Example 318, 3-(4-Amino-2-(trifluoromethyl)imidazo[1,2-f][1,2,4]triazin-7-yl)-4-methyl-N-((3-methyloxetan-3-yl)methyl)benzenesulfonamide trifluoroacetate salt] | 100 to 500 | < 100 | < 100
Cc1ccc(S(=O)(=O)NC2CN(C)C2)cc1-c1cnc2c(N)nc(C(F)(F)F)nn12 [Example 322, 3-(4-Amino-2-(trifluoromethyl)imidazo[1,2-f][1,2,4]triazin-7-yl)-4-methyl-N-(1-methylazetidin-3-yl)benzenesulfonamide] | 100 to 500 | < 100 | < 100
Cc1ccc(S(=O)(=O)NC23CC(Cn4ccnc4)(C2)C3)cc1-c1cnc2c(N)nc(C(F)(F)F)nn12 [Example 324, N-(3-((1H-Imidazol-1-yl)methyl)bicyclo[1.1.1]pentan-1-yl)-3-(4-amino-2-(trifluoromethyl)imidazo[1,2-f][1,2,4]triazin-7-yl)-4-methylbenzenesulfonamide trifluoroacetate salt] | 100 to 500 | < 100 | < 100
CC(=O)N1CC(O)(CNS(=O)(=O)c2ccc(C)c(-c3cnc4c(N)nc(C(F)(F)F)nn34)c2)C1 [Example 325, N-((l-Acetyl-3-hydroxyazetidin-3-yl)methyl)-3-(4-amino-2-(trifluoromethyl)imidazo[1,2-f][1,2,4]triazin-7-yl)-4-methylbenzenesulfonamide trifluoroacetate salt] | < 100 | < 100 | 100 to 500
Cc1ccc(S(=O)(=O)NC23CC(C#N)(C2)C3)cc1-c1cnc2c(N)nc(C(F)(F)F)nn12 [Example 330, 3-(4-Amino-2-(trifluoromethyl)imidazo[1,2-f][1,2,4]triazin-7-yl)-N-(3-cyanobicyclo[1.1.1]pentan-1-yl)-4-methylbenzenesulfonamide trifluoroacetate salt] | < 100 | < 100 | < 100
Cc1ccc(S(=O)(=O)NC23CC(CF)(C2)C3)cc1-c1cnc2c(N)nc(C(F)(F)F)nn12 [Example 331, 3-(4-Amino-2-(trifluoromethyl)imidazo[1,2-f][1,2,4]triazin-7-yl)-N-(3-(fluoromethyl)bicyclo[1.1.1]pentan-1-yl)-4-methylbenzenesulfonamide trifluoroacetate salt] | 100 to 500 | < 100 | 100 to 500
Cc1ccc(S(=O)(=O)NC23CC(Cn4cccn4)(C2)C3)cc1-c1cnc2c(N)nc(C(F)(F)F)nn12 [Example 332, N-(3-((1H-pyrazol-1-yl)methyl)bicyclo[1.1.1]pentan-1-yl)-3-(4-amino-2-(trifluoromethyl)imidazo[1,2-f][1,2,4]triazin-7-yl)-4-methylbenzenesulfonamide trifluoroacetate salt] | 100 to 500 | < 100 | < 100
Cc1ccc(S(=O)(=O)NC23CC(F)(C2)C3)cc1-c1cnc2c(N)nc(C(F)(F)F)nn12 [Example 333, 3-(4-Amino-2-(trifluoromethyl)imidazo[1,2-f][1,2,4]triazin-7-yl)-N-(3-fluorobicyclo[1.1.1]pentan-1-yl)-4-methylbenzenesulfonamide trifluoroacetate salt] | 100 to 500 | < 100 | < 100
Cc1ccc(S(=O)(=O)NCC2(CO)CCOCC2)cc1-c1cnc2c(N)nc(C(F)(F)F)nn12 [Example 334, 3-(4-Amino-2-(trifluoromethyl)imidazo[1,2-f][1,2,4]triazin-7-yl)-N-((4-(hydroxymethyptetrahydro-2H-pyran-4-yl)methyl)-4-methylbenzenesulfonamide trifluoroacetate salt] | 100 to 500 | < 100 | < 100
